Experiments:
Assay type in all cases: cell-based
URAT1 (SLC22A12) = molecular target: T1, URAT1 (SLC22A12) (Homo sapiens, UniProt Q96S37); assay: Inhibition of human URAT1-mediated urate uptake in HEK293 cells at 2 uM; settings: HEK293 cells expressing human URAT1, probe urate
T1 sequence (Q96S37 whole entry): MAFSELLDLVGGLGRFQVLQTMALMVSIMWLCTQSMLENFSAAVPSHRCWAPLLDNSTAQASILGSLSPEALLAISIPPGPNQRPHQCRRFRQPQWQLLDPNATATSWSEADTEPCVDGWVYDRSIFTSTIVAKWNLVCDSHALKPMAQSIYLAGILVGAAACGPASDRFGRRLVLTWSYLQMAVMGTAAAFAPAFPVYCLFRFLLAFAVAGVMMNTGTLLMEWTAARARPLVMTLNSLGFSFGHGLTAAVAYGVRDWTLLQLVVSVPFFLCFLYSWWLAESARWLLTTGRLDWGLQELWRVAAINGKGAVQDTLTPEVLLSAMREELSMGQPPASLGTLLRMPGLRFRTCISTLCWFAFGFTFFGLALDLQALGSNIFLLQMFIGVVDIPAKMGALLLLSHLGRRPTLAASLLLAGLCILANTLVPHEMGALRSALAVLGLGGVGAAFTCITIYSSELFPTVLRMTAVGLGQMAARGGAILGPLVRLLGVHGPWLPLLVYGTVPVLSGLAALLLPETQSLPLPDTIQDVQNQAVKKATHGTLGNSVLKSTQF

[1] = molecular target: T2, Solute carrier family 22 member 12 (Homo sapiens, UniProt Q96S37); assay: Inhibition of human URAT1-mediated urate uptake in HEK293 cells
T2 sequence (Q96S37 whole entry): T1 sequence (Q96S37 whole entry)

[2] = molecular target: T2, Solute carrier family 22 member 12; assay: Inhibition of human URAT1-mediated urate uptake in HEK293 cells by competitive inhibition assay

SMILES	inhibition at 2 µM (URAT1 (SLC22A12)) [%]	IC50 [1] [µM]	Ki [2] [µM]
CCCN(CCC)S(=O)(=O)c1ccc(C(=O)O)cc1 [PROBENECID]	30		
O=C1C(CC[S+]([O-])c2ccccc2)C(=O)N(c2ccccc2)N1c1ccccc1 (stereo not given) [SULFINPYRAZONE]		100	
CCc1oc2ccccc2c1C(=O)c1cc(Br)c(O)c(Br)c1 [BENZBROMARONE]	70		
O=c1c(O)c(-c2ccc(O)cc2O)oc2cc(O)cc(O)c12 [MORIN]		2	5.74
